Measurements: patent US4973679A, “Process for oligonucleo tide synthesis using phosphormidite intermediates” (University Patents, Inc., priority 1986, dated 1990)

Test: Lewis acid (ZnBr2) hydrolysis rates of triarylmethyl groups attached to the 5'-hydroxyl of deoxynucleosides
Format: physicochemical
Conditions: 0.08 M ZnBr2 in nitromethane; tlc, HCl vapors
Protocol: These compounds are listed in Tables IV and V. The 5'-triarylmethyldeoxynucleosides were treated with protic and Lewis acids using carefully controlled conditions. […] The rates are more variable -with protic acids.
The Lewis Acid Hydrolysis Rates of Triarylmethyl Groups
^1 Reaction conditions were 0.08 M ZnBr2 in nitromethane.
Aliquots were removed from the reaction solution, quenched with ammonium
acetate and analyzed visually after tlc and exposure to HCl vapors. Time

Structure (SMILES)	t1/2 in ZnBr2
COc1ccccc1C(OC[C@H]1O[C@@H](n2cnc3c(=O)[nH]c(NC(=O)C(C)C)nc32)C[C@@H]1O)(c1ccccc1)c1ccccc1OC [R1 = R2 = b; R3 = a; G]	20 s
COc1ccccc1C(OC[C@H]1O[C@@H](n2ccc(NC(=O)c3ccccc3)nc2=O)C[C@@H]1O)(c1ccccc1OC)c1cccc2ccccc12 [R1 = R2 = b; R3 = n; C]	30 s
COc1ccccc1C(OC[C@H]1O[C@@H](n2cc(C)c(=O)[nH]c2=O)C[C@@H]1O)(c1ccccc1OC)c1cccc2ccccc12 [R1 = R2 = b; R3 = n; T]	30 s
COc1ccc(C(OC[C@H]2O[C@@H](n3cnc4c(NC(=O)c5ccccc5)ncnc43)C[C@@H]2O)(c2ccccc2)c2ccc(OC)cc2)cc1 [R1 = R2 = c; R3 = a; A]	20 s
COc1ccc(C(OC[C@H]2O[C@@H](n3ccc(NC(=O)c4ccccc4)nc3=O)C[C@@H]2O)(c2ccccc2)c2ccc(OC)cc2)cc1 [R1 = R2 = c; R3 = a; C]	45 s
COc1ccc(C(OC[C@H]2O[C@@H](n3cnc4c(=O)[nH]c(NC(=O)C(C)C)nc43)C[C@@H]2O)(c2ccccc2)c2ccc(OC)cc2)cc1 [R1 = R2 = c; R3 = a; G]	20 s
COc1ccc(C(OC[C@H]2O[C@@H](n3cc(C)c(=O)[nH]c3=O)C[C@@H]2O)(c2ccccc2)c2ccc(OC)cc2)cc1 [R1 = R2 = c; R3 = a; T]	60 s
Cc1ccc(C(OC[C@H]2O[C@@H](n3cnc4c(NC(=O)c5ccccc5)ncnc43)C[C@@H]2O)(c2ccccc2)c2ccccc2)cc1 [R1 = h; R2 = R3 = a; A]	45 s
COc1ccc(C(OC[C@H]2O[C@@H](n3cc(C)c(=O)[nH]c3=O)C[C@@H]2O)(c2ccccc2)c2cccc3ccccc23)cc1 (stereo partly shown) [R1 = n; R2 = c; R3 = a; T]	60 s
Cc1cn([C@H]2C[C@H](O)[C@@H](COC(c3ccccc3)(c3ccc(F)cc3)c3cccc4ccccc34)O2)c(=O)[nH]c1=O (stereo partly shown) [R1 = n; R2 = e; R3 = a; T]	60 s
